Data as given in patent publication US20260049071A1, “PROTEIN TYROSINE KINASE INHIBITOR AND MEDICAL USE THEREOF” (BEYANG THERAPEUTICS CO., LTD., priority 2022, published 2026).
Values belong to the compound of their own block, whether it stands above or below them.

Columns and labels:
melanin = assay: Binding capacity of compounds to melanin; format: in vitro ADME; conditions: Sepia officinalis (cuttlefish), melanin suspension (1 mg/mL); 1 mg/mL melanin suspension in PBS pH 7.4, 2 μM compound, 2 h at 37° C.; read-out: Fu % (percentage of free drug, not bound to melanin)
Text: Pigmented eye tissues contain melanin in intracellular melanosomes. Drugs bind to melanin to varying degrees, ranging from non-binding to extensive binding. Therefore, melanin binding is an important feature that affects drug delivery and biodistribution in the eye. The binding capacity of a compound to the melanin must be considered in the development of ophthalmic drugs.
Melanin was derived from the melanin of cuttlefish (Sepia officinalis) and was commercially available from Sigma Aldrich (St Louis, MO).
First, prepare 1 mg/mL melanin suspension with PBS (pH 7.4). As a washing step for the matrix, centrifuge the suspended particles for 5 min at 3000 rpm. Resuspend the resulting particles in a fresh PBS buffer, heat to 37° C. over continuous shaking and incubate it for 1 h. Accurately pipette 2 μL of the test stock solution (0.1 mM) into 98 μL of melanin suspension (1 mg/mL) to achieve a final incubation concentration of 2 μM. Similarly, accurately pipette 2 μL of the stock solution (0.1 mM) to 98 μL of PBS buffer (containing 0.1% BSA) as a blank control sample. Incubate the samples in a shaker (80-90 rpm) for 2 h at 37° C. Then, centrifuge the samples at room temperature. Pipette 50 μL of the supernatant and add 50 μL of precipitant (containing an internal standard). After protein precipitation of all the above samples, centrifuge the samples to collect the supernatants, dilute the supernatants with water (if necessary) and inject them for analysis. At the same time, measure the positive controls, including the high-binding compounds Sunitinib and chloroquine and the low-binding compound celecoxib. Establish an LC-MS/MS method for determining compound concentrations, and calibrate the peak area ratio of analyte/internal standard (Analyte/AIS) in the measured sample by the dilution factor to take it as an alternative concentration for the sample for data processing. The binding rate (Fh) of a compound in melanin was calculated as: […]
Ctest was the concentration of the compound in the melanin-incubated sample or the peak area ratio of the test compound to the internal standard. Ccontrol was the concentration of the compound in the blank control sample or the peak area ratio of the test compound to the internal standard. Percentage of free drug (Fu %)=100−Fb The binding rates of the compounds of the present invention to melanin are shown in the table below: […]

FLT1 (VEGFR1) = FLT1 (VEGFR1) (Homo sapiens (Human), UniProt P17948); assay: Kinase inhibition, Mobility Shift Assay (VEGFR1); format: biochemical
Chain of FLT1 (VEGFR1) (P17948 27-1338): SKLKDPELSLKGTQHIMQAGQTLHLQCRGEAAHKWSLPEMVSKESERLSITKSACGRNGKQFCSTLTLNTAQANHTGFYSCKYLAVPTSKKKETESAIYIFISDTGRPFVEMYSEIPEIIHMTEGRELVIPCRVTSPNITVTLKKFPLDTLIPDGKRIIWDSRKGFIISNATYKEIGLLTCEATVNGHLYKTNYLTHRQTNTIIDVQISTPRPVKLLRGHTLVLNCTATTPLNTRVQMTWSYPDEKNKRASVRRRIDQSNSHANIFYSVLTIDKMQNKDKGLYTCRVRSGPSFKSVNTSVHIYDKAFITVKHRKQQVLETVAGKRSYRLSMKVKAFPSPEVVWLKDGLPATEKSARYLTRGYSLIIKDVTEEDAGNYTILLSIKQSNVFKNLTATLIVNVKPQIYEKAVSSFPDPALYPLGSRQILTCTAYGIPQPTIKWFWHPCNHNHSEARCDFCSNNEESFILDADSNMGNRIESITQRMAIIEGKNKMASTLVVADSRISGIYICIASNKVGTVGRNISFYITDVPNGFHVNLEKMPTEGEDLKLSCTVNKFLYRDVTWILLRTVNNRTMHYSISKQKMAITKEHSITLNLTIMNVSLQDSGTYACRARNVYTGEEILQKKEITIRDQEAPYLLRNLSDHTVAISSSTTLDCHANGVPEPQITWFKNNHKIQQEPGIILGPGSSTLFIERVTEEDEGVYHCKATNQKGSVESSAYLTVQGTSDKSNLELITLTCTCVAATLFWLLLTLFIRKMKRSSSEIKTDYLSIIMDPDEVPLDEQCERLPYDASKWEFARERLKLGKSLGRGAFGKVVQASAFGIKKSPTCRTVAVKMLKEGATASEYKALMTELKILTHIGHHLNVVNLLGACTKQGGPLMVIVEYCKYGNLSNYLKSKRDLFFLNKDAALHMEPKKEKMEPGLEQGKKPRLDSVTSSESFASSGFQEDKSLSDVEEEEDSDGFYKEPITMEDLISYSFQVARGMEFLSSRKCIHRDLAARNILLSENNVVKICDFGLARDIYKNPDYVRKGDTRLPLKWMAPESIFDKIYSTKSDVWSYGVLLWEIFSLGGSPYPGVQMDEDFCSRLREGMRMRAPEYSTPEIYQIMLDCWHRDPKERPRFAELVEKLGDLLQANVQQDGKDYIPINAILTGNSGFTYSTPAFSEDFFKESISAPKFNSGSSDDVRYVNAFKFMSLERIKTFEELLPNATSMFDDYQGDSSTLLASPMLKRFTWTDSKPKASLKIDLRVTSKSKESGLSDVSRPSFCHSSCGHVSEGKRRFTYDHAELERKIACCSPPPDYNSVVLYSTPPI
Protocol: (§1) This assay directly monitored the ability of compounds to inhibit kinase phosphorylation by measuring non-phosphorylated and phosphorylated substrates in kinase reactions by using Mobility Shift Assays/IMAP™ analysis.
(§2) Add the kinase and DTT to 1× kinase buffer to form a 2.5× kinase solution; transfer 10 μL of 2.5× kinase solution to a 384-well reaction plate and add 1× kinase buffer to negative control wells. Incubate the plate for 10 min at room temperature; add FAM-labeled peptides, MgCl2, ATP and other reagents to 1× kinase buffer to form a 2.5× substrate solution; transfer 10 μL of the above 2.5× substrate solution to the 384-well reaction plate; incubate the plate at 28° C. for different times, and add 25 μL of stop solution to the 384-well reaction plate to stop the reaction. Read the conversion ratio data on CaliperEZ Reader II. Convert conversion rates into inhibition ratio data.
(§3) “Min” indicates the readout of the control well without the addition of kinase; and “Max” indicates the readout of the control well with the addition of DMSO. Fit IC50 values with XLFit excel add-in version 5.4.0.8.
(§4) X indicates the log value of compound concentration, and Y indicates the inhibition ratio (% inhibition).

KDR (VEGFR2) = KDR (VEGFR2) (Homo sapiens (Human), UniProt P35968); assay: Kinase inhibition, Mobility Shift Assay (VEGFR2); format: biochemical
Chain of KDR (VEGFR2) (P35968 790-1356): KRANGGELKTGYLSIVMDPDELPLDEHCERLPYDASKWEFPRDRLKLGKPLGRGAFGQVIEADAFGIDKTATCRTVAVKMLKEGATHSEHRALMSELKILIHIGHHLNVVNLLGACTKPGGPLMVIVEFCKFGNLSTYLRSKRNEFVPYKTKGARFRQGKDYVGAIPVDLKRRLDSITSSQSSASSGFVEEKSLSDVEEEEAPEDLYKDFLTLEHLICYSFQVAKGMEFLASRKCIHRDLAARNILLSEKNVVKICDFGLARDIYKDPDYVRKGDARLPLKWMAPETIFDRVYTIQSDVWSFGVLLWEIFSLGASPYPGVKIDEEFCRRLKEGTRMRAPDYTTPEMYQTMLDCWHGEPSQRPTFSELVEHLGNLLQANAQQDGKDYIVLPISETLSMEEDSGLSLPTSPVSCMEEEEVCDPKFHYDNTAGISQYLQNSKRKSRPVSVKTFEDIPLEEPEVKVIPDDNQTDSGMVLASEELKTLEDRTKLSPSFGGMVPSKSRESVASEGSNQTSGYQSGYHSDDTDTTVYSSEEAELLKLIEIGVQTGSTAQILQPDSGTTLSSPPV
Method in brief: (§5)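 Mobility shift assay: each kinase preincubated 10 min at room temperature with compound, then reacted with FAM-labeled peptide, MgCl2 and ATP at 28° C. for varying times. Substrate-to-product conversion read on Caliper; % inhibition normalised to no-kinase and DMSO controls, and IC50 fitted.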

FLT4 (VEGFR3) = FLT4 (VEGFR3) (Homo sapiens (Human), UniProt P35916); assay: Kinase inhibition, Mobility Shift Assay (VEGFR3); format: biochemical
Chain of FLT4 (VEGFR3) (P35916 25-1363): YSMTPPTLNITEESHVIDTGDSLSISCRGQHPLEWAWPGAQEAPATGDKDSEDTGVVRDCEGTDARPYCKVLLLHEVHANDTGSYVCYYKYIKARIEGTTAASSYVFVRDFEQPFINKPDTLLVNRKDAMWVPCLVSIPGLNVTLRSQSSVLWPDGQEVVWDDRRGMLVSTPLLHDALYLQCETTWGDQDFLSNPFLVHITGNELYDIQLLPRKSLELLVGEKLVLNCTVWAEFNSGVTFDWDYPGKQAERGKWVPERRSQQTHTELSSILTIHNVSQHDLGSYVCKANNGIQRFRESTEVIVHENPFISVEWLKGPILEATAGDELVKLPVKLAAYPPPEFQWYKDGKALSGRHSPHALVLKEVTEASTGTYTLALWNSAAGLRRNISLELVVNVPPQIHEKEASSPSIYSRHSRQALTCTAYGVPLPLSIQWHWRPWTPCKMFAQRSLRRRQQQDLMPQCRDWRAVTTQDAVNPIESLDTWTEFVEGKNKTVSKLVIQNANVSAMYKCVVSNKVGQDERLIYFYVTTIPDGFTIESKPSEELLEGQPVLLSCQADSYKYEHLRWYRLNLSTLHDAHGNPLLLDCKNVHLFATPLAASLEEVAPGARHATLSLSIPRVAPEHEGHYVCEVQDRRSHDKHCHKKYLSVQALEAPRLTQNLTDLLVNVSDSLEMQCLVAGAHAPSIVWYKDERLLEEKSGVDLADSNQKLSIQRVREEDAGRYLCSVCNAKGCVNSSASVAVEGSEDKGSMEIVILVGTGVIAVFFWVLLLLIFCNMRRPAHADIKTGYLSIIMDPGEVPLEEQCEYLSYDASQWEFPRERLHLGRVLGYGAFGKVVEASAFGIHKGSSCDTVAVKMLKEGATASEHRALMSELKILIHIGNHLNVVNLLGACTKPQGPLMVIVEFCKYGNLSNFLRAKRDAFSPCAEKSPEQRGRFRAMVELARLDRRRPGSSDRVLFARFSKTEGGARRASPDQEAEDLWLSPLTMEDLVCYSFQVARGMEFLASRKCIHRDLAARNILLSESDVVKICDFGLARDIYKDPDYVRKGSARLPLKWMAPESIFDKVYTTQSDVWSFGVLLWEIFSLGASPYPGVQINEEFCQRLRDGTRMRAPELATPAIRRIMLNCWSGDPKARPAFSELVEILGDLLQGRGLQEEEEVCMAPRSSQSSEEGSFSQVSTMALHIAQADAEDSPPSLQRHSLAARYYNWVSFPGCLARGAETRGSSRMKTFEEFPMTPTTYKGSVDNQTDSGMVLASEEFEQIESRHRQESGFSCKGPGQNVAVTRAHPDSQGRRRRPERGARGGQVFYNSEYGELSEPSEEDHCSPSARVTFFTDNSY
Protocol: as §1, §2, §3, §4

EGFR = EGFR (Homo sapiens (Human), UniProt P00533); assay: Kinase inhibition, Mobility Shift Assay (EGFR); format: biochemical
Chain of EGFR (P00533 25-1210): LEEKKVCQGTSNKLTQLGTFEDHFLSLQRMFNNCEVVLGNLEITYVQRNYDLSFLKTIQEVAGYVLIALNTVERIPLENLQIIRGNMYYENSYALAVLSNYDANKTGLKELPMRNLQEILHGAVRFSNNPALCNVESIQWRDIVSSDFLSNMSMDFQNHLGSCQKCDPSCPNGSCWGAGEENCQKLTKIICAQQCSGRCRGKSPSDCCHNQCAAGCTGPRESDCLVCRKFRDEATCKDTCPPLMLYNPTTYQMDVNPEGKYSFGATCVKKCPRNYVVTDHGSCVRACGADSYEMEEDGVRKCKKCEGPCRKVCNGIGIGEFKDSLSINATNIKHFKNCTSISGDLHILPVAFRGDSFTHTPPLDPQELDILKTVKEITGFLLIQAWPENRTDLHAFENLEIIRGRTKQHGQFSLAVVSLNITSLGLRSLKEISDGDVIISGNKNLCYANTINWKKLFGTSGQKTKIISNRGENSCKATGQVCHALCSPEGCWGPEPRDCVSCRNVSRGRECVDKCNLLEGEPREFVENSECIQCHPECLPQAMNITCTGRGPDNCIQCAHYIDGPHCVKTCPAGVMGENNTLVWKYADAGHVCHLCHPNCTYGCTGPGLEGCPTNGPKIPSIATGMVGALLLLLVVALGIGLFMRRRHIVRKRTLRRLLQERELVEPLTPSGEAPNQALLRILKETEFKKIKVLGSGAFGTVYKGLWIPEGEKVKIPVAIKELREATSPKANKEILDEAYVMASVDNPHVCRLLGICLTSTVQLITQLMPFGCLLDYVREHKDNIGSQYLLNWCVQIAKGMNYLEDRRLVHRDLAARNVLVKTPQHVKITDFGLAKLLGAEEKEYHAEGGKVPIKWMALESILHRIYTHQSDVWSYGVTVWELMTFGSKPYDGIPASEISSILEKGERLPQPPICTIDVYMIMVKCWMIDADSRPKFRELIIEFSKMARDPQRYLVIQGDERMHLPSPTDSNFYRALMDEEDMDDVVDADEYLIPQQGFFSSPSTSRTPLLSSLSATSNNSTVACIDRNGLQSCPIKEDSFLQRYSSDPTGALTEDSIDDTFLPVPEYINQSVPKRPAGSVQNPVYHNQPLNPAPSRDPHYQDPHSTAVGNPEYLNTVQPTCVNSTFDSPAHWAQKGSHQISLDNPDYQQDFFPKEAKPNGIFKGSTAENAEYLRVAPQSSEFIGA
Method in brief: as §5

Compound: CNC(=O)c1ccccc1Sc1ccc2c(/C=C/c3cncc(OCCN4CCCC4)c3)n[nH]c2c1 [Compound I-22, N-methyl-2-({3-[(E)-2-{5-[2-(pyrrolidin-1-yl)ethoxy]pyridin-3-yl}vinyl]-1H-indazol-6-yl}thio)benzamide]
fraction unbound at 2 h, 2 μM (melanin): 0.01 to 0.05
IC50 (FLT1 (VEGFR1)): 10 to 100 nM
IC50 (KDR (VEGFR2)): 10 to 100 nM
IC50 (FLT4 (VEGFR3)): 10 to 100 nM
IC50 (EGFR): > 60000 nM

Compound: CNC(=O)c1ccccc1Sc1ccc2c(C#Cc3cc(OCCN4CCCC4)ccn3)n[nH]c2c1 [Compound I-23, N-methyl-2-{[3-(2-{4-[2-(pyrrolidin-1-yl)ethoxy]pyridin-2-yl}ethynyl)-1H-indazol-6-yl]thio}benzamide]
fraction unbound at 2 h, 2 μM (melanin): 0.01 to 0.05
IC50 (FLT1 (VEGFR1)): 10 to 100 nM
IC50 (KDR (VEGFR2)): 10 to 100 nM
IC50 (FLT4 (VEGFR3)): > 100 nM
IC50 (EGFR): 6000 to 60000 nM

Compound: CNC(=O)c1ccccc1Sc1ccc2c(/C=C/c3ccnn3CCN3CCCC3)n[nH]c2c1 [Compound I-25, N-methyl-2-({3-[(E)-2-{1-[2-(pyrrolidin-1-yl)ethyl]-1H-pyrazole-5-yl}vinyl]-1H-indazol-6-yl}thio)benzamide]
fraction unbound at 2 h, 2 μM (melanin): > 0.05
IC50 (FLT1 (VEGFR1)): 10 to 100 nM
IC50 (KDR (VEGFR2)): > 100 nM
IC50 (FLT4 (VEGFR3)): 10 to 100 nM
IC50 (EGFR): 6000 to 60000 nM

Compound: CNC(=O)c1ccccc1Sc1ccc2c(NC(=O)NCCN3CCN(C)CC3)n[nH]c2c1 [Compound I-31]
fraction unbound at 2 h, 2 μM (melanin): 0.01 to 0.05
IC50 (FLT1 (VEGFR1)): > 100 nM
IC50 (KDR (VEGFR2)): > 100 nM
IC50 (FLT4 (VEGFR3)): > 100 nM
IC50 (EGFR): > 60000 nM

Compound: CNC(=O)c1c(F)cccc1Sc1ccc2c(/C=C/c3ccc(OCCN4CCCC4)cn3)n[nH]c2c1 [Compound I-36, 2-fluoro-N-methyl-6-({3-[(E)-2-{5-[2-(pyrrolidin-1-yl)ethoxy]pyridin-2-yl}vinyl]-1H-indazol-6-yl}thio)benzamide]
fraction unbound at 2 h, 2 μM (melanin): > 0.05
IC50 (FLT1 (VEGFR1)): > 100 nM
IC50 (KDR (VEGFR2)): 1 to 10 nM
IC50 (FLT4 (VEGFR3)): 1 to 10 nM
IC50 (EGFR): 6000 to 60000 nM

Compound: CNC(=O)c1ccccc1Sc1ccc2c(/C=C/c3ccc(OC[C@@H]4CCN(C)C4)cn3)n[nH]c2c1 [Compound I-39, N-methyl-2-({3-[(E)-2-(5-{[(3R)-1-methylpyrrolidin-3-yl]methoxy}pyridin-2-yl)vinyl]-1H-indazol-6-yl}thio)benzamide]
fraction unbound at 2 h, 2 μM (melanin): 0.01 to 0.05
IC50 (FLT1 (VEGFR1)): ≤ 1 nM
IC50 (KDR (VEGFR2)): ≤ 1 nM
IC50 (FLT4 (VEGFR3)): 1 to 10 nM
IC50 (EGFR): 6000 to 60000 nM

Compound: CCNC(=O)c1cccc(F)c1Sc1ccc2c(/C=C/c3cc(CCCN4CCCC4)ccn3)n[nH]c2c1 [Compound I-116, N-ethyl-3-fluoro-2-({3-[(E)-2-{4-[3-(pyrrolidin-1-yl)propyl]pyridin-2-yl}vinyl]-1H-indazol-6-yl}thio)benzamide]
fraction unbound at 2 h, 2 μM (melanin): 0.01 to 0.05
IC50 (FLT1 (VEGFR1)): 10 to 100 nM
IC50 (KDR (VEGFR2)): 10 to 100 nM
IC50 (FLT4 (VEGFR3)): 10 to 100 nM
IC50 (EGFR): > 60000 nM

Compound: O=C(NC1CC1)c1cc(F)ccc1Sc1ccc2c(/C=C/c3cc(OCCN4CCCC4)ccn3)n[nH]c2c1 [Compound I-118, N-cyclopropyl-5-fluoro-2-({3-[(E)-2-{4-[2-(pyrrolidin-1-yl)ethoxy]pyridin-2-yl}vinyl]-1H-indazol-6-yl}thio)benzamide]
fraction unbound at 2 h, 2 μM (melanin): < 0.01
IC50 (FLT1 (VEGFR1)): 10 to 100 nM
IC50 (KDR (VEGFR2)): 1 to 10 nM
IC50 (FLT4 (VEGFR3)): 10 to 100 nM
IC50 (EGFR): > 60000 nM

More lines, now with the values ahead:

fraction unbound at 2 h, 2 μM (melanin): 0.01 to 0.05
IC50 (FLT1 (VEGFR1)): 1 to 10 nM
IC50 (KDR (VEGFR2)): 1 to 10 nM
IC50 (FLT4 (VEGFR3)): 1 to 10 nM
IC50 (EGFR): 6000 to 60000 nM
Compound: CNC(=O)c1ccccc1Sc1ccc2c(/C=C/c3cccc(OCCN4CCCC4)n3)n[nH]c2c1 [Compound I-17, N-methyl-2-({3-[(E)-2-{6-[2-(pyrrolidin-1-yl)ethoxy]pyridin-2-yl}vinyl]-1H-indazol-6-yl}thio)benzamide]

fraction unbound at 2 h, 2 μM (melanin): 0.01 to 0.05
IC50 (FLT1 (VEGFR1)): 1 to 10 nM
IC50 (KDR (VEGFR2)): 1 to 10 nM
IC50 (FLT4 (VEGFR3)): 1 to 10 nM
IC50 (EGFR): 6000 to 60000 nM
Compound: CNC(=O)c1ccccc1Sc1ccc2c(/C=C/c3ccnc(OCCN4CCCC4)c3)n[nH]c2c1 [Compound I-18, N-methyl-2-({3-[(E)-2-{2-[2-(pyrrolidin-1-yl)ethoxy]pyridin-4-yl}vinyl]-1H-indazol-6-yl}thio)benzamide]

fraction unbound at 2 h, 2 μM (melanin): 0.01 to 0.05
IC50 (FLT1 (VEGFR1)): 1 to 10 nM
IC50 (KDR (VEGFR2)): 1 to 10 nM
IC50 (FLT4 (VEGFR3)): 1 to 10 nM
IC50 (EGFR): > 60000 nM
Compound: CNC(=O)c1ccccc1Sc1ccc2c(/C=C/c3ccc(OCCN4CCCC4)nc3)n[nH]c2c1 [Compound I-19, N-methyl-2-({3-[(E)-2-{6-[2-(pyrrolidin-1-yl)ethoxy]pyridin-3-yl}vinyl]-1H-indazol-6-yl}thio)benzamide]

fraction unbound at 2 h, 2 μM (melanin): 0.01 to 0.05
IC50 (FLT1 (VEGFR1)): 10 to 100 nM
IC50 (KDR (VEGFR2)): 10 to 100 nM
IC50 (FLT4 (VEGFR3)): 10 to 100 nM
IC50 (EGFR): 6000 to 60000 nM
Compound: CNC(=O)c1ccccc1Sc1cnc2c(/C=C/c3ccccn3)n[nH]c2c1 [Compound I-21, N-methyl-2-({3-[(E)-2-(pyridin-2-yl)vinyl]-1H-pyrazolo[4,3-b]pyridin-6-yl}thio)benzamide]

fraction unbound at 2 h, 2 μM (melanin): 0.01 to 0.05
IC50 (FLT1 (VEGFR1)): 1 to 10 nM
IC50 (KDR (VEGFR2)): 1 to 10 nM
IC50 (FLT4 (VEGFR3)): 1 to 10 nM
IC50 (EGFR): 6000 to 60000 nM
Compound: CNC(=O)c1ccccc1Sc1ccc2c(/C=C/c3cnn(CCCN4CCCC4)c3)n[nH]c2c1 [Compound I-32, N-methyl-2-({3-[(E)-2-{1-[3-(pyrrolidin-1-yl)propyl]-1H-pyrazole-4-yl}vinyl]-1H-indazol-6-yl}thio)benzamide]

fraction unbound at 2 h, 2 μM (melanin): > 0.05
IC50 (FLT1 (VEGFR1)): 1 to 10 nM
IC50 (KDR (VEGFR2)): 1 to 10 nM
IC50 (FLT4 (VEGFR3)): 1 to 10 nM
IC50 (EGFR): 6000 to 60000 nM
Compound: CNC(=O)c1cccc(F)c1Sc1ccc2c(/C=C/c3ccc(OCCN4CCCC4)cn3)n[nH]c2c1 [Compound I-33, 3-fluoro-N-methyl-2-({3-[(E)-2-{5-[2-(pyrrolidin-1-yl)ethoxy]pyridin-2-yl}vinyl]-1H-indazol-6-yl}thio)benzamide]

fraction unbound at 2 h, 2 μM (melanin): 0.01 to 0.05
IC50 (FLT1 (VEGFR1)): 1 to 10 nM
IC50 (KDR (VEGFR2)): 1 to 10 nM
IC50 (FLT4 (VEGFR3)): 1 to 10 nM
IC50 (EGFR): 6000 to 60000 nM
Compound: CNC(=O)c1ccc(F)cc1Sc1ccc2c(/C=C/c3ccc(OCCN4CCCC4)cn3)n[nH]c2c1 [Compound I-35]

fraction unbound at 2 h, 2 μM (melanin): 0.01 to 0.05
IC50 (FLT1 (VEGFR1)): ≤ 1 nM
IC50 (KDR (VEGFR2)): ≤ 1 nM
IC50 (FLT4 (VEGFR3)): ≤ 1 nM
IC50 (EGFR): 600 to 6000 nM
Compound: CN1CCN(c2ccc(/C=C/c3n[nH]c4cc(Sc5ccccc5C(=O)NC5CC5)ccc34)nc2)CC1 [Compound I-38, N-cyclopropyl-2-({3-[(E)-2-[5-(4-methylpiperazin-1-yl)pyridin-2-yl]vinyl]-1H-indazol-6-yl}thio)benzamide]

fraction unbound at 2 h, 2 μM (melanin): 0.01 to 0.05
IC50 (FLT1 (VEGFR1)): 1 to 10 nM
IC50 (KDR (VEGFR2)): 1 to 10 nM
IC50 (FLT4 (VEGFR3)): 10 to 100 nM
IC50 (EGFR): 6000 to 60000 nM
Compound: O=C(NC1CC1)c1ccccc1Sc1ccc2c(/C=C/c3cc(CN4CCCC4)ccn3)n[nH]c2c1 [Compound I-115, N-cyclopropyl-2-({3-[(E)-2-{4-[(pyrrolidin-1-yl)methyl]pyridin-2-yl}vinyl]-1H-indazol-6-yl}thio)benzamide]

fraction unbound at 2 h, 2 μM (melanin): 0.01 to 0.05
IC50 (FLT1 (VEGFR1)): 1 to 10 nM
IC50 (KDR (VEGFR2)): 1 to 10 nM
IC50 (FLT4 (VEGFR3)): 1 to 10 nM
IC50 (EGFR): > 60000 nM
Compound: O=C(NC1CC1)c1ccccc1Sc1ccc2c(/C=C/c3cccc(CN4CCCC4)n3)n[nH]c2c1 [Compound I-117, N-cyclopropyl-2-({3-[(E)-2-{6-[(pyrrolidin-1-yl)methyl]pyridin-2-yl}vinyl]-1H-indazol-6-yl}thio)benzamide]
